In paper PMC5318439, “The Novel Toll-Like Receptor 2 Agonist SUP3 Enhances Antigen Presentation and T Cell Activation by Dendritic Cells” (Frontiers in Immunology, 2017):
Where a SMILES comes first, the peptide text is derived from it. The star is where a group is joined. X1 = CCCCCCCCCCCCCCNC(=O)OC[C@H](C*)OC(=O)NCCCCCCCCCCCCCC; Palmitoyl = CCCCCCCCCCCCCCCC(=O)*

Experiments:
[1] = tested on: CD8^+ cDCs; assay: Cytokine production by purified CD8+ cDCs (ELISA); type: cell-based, mice; details: 200 nM, GM-CSF 20 ng/mL, 24 and 48 h
Procedure: Splenic DCs (5 × 10^5 cells/mL) were stimulated by Pam3 (200 nM), SUP3 (200 nM), or CpG ODN 1668 (20 nM; Adipogen IAX-200-001) in the GM-CSF (20 ng/mL) supplemented medium for indicated periods. Cell culture supernatants were harvested at indicated time points and stored at −40°C. RAW 264.7 cells and GMDCs were stimulated by lipopolysaccharide (LPS) (20 ng/mL; Adipogen IAX-100-013), Pam3, or SUP3 (both at 200 nM) for 24 h. For in vivo administration, Pam3 (2 nmol per mouse), SUP3 (2 nmol per mouse), or LPS (1 µg per mouse) were intravenously (i.v.) injected via tail veins. Serum was obtained through tail vein bleeding and centrifuged after coagulation and stored at −40°C. Cytokines (IL-6, eBioscience 88-7064; TNFα, eBioscience 88-7324; IL-12p40, BioLegend 431604), chemokine (MIP1α, R&D Systems DY450-05), and total IgM (eBioscience, 88-50470) were quantified by ELISA kits following the instructions of manufacturers.
Figure 4 SUP3 stimulated maturation of CD8^+ conventional dendritic cells (cDCs). […] The surface expression of costimulatory and major histocompatibility complex (MHC) molecules were then analyzed by flow cytometry. […] Splenic CD8^+ cDCs were enriched, and surface expression of CD40 and CD86 was analyzed by flow cytometry. […] Supernatants were harvested 24 and 48 h post-stimulation, and cytokines were measured by ELISA. […]

[2] = tested on: OVA-specific CD8^+ T cells; assay: OCS immunization, OVA-specific CD8+ T cells (CTL induction) in spleen; type: in vivo, C57BL/6 mice; details: 10 nmol, data not shown; for CTL induction at high dose: OCS immunization; for spleen size at high dose: mice
Procedure: Splenocytes were X-ray irradiated (1500 Rad) and then coated with OVA (1 mg per spleen) in RPMI 1640 medium (Gibco 11875-119) for 30 min at 37°C. Cells were washed twice with RPMI 1640 medium. […] Seven days post-immunization, OVA-specific CD8^+ T cells in spleen were analyzed by flow cytometry by staining with fluorescence-conjugated antibodies against CD19 (eBioscinece, clone 1D3), CD3 (eBioscinece, clone 145-2C11), CD8 (eBioscinece, clone 53-6.7), and SIINFEKL/H-2Kb-Pentamer (ProImmune F093-4A).
Figure 2 SUP3 induced more vigorous cytotoxic T lymphocytes (CTLs) responses than Pam3CSK4 without excessive production of inflammatory cytokines in vivo. […] The percentages of pentamer positive cells (CD19^− CD3^+ CD8^+ SIINFEKL/H-2Kb-Pentamer^+) in spleens, i.e., the OVA-specific CD8^+ T cells, were determined by flow cytometry (A) and the statistic calculation is presented in (B). Representative data from three independent experiments with three mice in each group were presented. (C,D) Mice were immunized as in (A) for 30 days, then inoculated with OVA-expressing B16 melanoma cells (B16-OVA) (5 × 10^5 cells per mouse) by i.v. injection and analyzed for metastatic tumor formation in the lung 16 days after inoculation. Data from two independent experiments with three mice in each group were shown. […] “n.d.” indicates “not detected.” *p < 0.05, **p < 0.01. TEXT PRINTED IN THE PICTURE: (A) Pam3: Pentamer^+ (% of CD8^+ T): 1.57 (OCS) | (A) SUP3: Pentamer^+ (% of CD8^+ T): 2.98 (OCS) | (E) Pam3: IL-12p40 (ng/mL): n.d | (E) SUP3: IL-12p40 (ng/mL): n.d DOUBTS OF THE COPYIST ABOUT THIS PICTURE: Panel A also prints 0.37 for the control Non and 0.72 for the vehicle control PBS (OCS). Both are left out because they are controls, not test substances. / Panel E prints n.d for the vehicle control PBS in all four plots. These are left out for the same reason.

CCCCCCCCCCCCCCCC(=O)N[C@@H](CSC[C@@H](COC(=O)NCCCCCCCCCCCCCC)OC(=O)NCCCCCCCCCCCCCC)C(=O)NCC(=O)N[C@@H](CCCCN)C(=O)N[C@@H](CCCCN)C(=O)N[C@@H](CCCCN)C(=O)O [SUP3, (2S,5S,8S,14R,18R)-2,5,8-tris(4-aminobutyl)-4,7,10,13,21-pentaoxo-14-palmitamido-18-((tetradecylcarbamoyl)oxy)-20-oxa-16-thia-3,6,9,12,22-pentaazahexatriacontan-1-oic acid] (Palmitoyl-C(X1)GKKK-OH)
IL-6 and TNFα production by CD8+ cDCs [1]: only low levels | CTL induction at high dose [2]: decreased CTL induction | spleen size at high dose [2]: enlarged spleens

Pam3CSK4 [reference compound]
IL-6 and TNFα production by CD8+ cDCs [1]: only low levels | CTL induction at high dose [2]: did not have the same effect | spleen size at high dose [2]: did not have the same effect
